Source: patent US12678488B2, “Batch management method for improving farrowing rate or number of piglets born alive in swine” (priority 2024, dated 2026)

Test system: Landrace x Large White reserve sows
Experiment: Heat detection: estrus rate and estrus time in gilts, different doses (Example 2)
Type: in vivo, pigs
Excerpt: Landrace x Large White reserve sows, about 230 days old, were randomly divided into a batch farrowing with FTAI and batch farrowing with FTAI combined with different doses of 1-[bis(4-cyanophenyl)methyl]-1,2,4-triazole groups, and during the experiment, the experimental sows in each group were fed regularly and gained free access to water according to the requirements of feeding management in the farm.
Referring to the dosage of 1-[bis(4-cyanophenyl)methyl]-1,2,4-triazole in clinical medicine and using standard weight-dosage conversion, the recommended dosage of 1-[bis(4-cyanophenyl)methyl]-1,2,4-triazole for sows was 50-150 μg/kg·BW/day, orally for consecutive 5 days, as derived by conversion. In addition, the applicant previously studied uniparous cows, and in the ovulation induction scheme, the reference dosage of 1-[bis(4-cyanophenyl)methyl]-1,2,4-triazole was 60-200 μg/kg·BW, administered in a single dose; furthermore, by means of conversion in conjunction with the dosage for model animals (mice) previously in the laboratory, various dosages were designed. The treatment methods of hormones and drugs for sows in each group were as follows: • batch farrowing with FTAI: the sows were fed with an altrenogest oral solution at 20 mg/animal at the same time every day, for 18 days; PMSG at 1000 IU/animal was injected intramuscularly 42 h after the last feeding with altrenogest, GnRH at 100 μg/animal was injected intramuscularly 80 h after the injection of PMSG, a first timed insemination was performed 24 h after the injection of GnRH, and a second timed insemination was performed 16 h after the first insemination.
(§1) Treatment group 1: the hormone treatment and mating schemes for gilts were the same as FTAI. The difference lay in that PMSG at 1000 IU/gilt was injected intramuscularly 42 h after the last feeding with altrenogest, and 1-[bis(4-cyanophenyl)methyl]-1,2,4-triazole at 12 μg/kg·BW/day was administered orally 8 h after the injection of PMSG, for 1 day.
as §1, with “2:” for “1:”, “2 days.” for “1 day.”
as §1, with “3:” for “1:”, “20” for “12”
as §1, with “4:” for “1:”, “sows” for “gilts”, “1-[bis (4-cyanophenyl)methyl]-1,2,4-triazole” for “1-[bis(4-cyanophenyl)methyl]-1,2,4-triazole”, “20” for “12”, “2 days.” for “1 day.”
as §1, with “5:” for “1:”, “IU/animal” for “IU/gilt”, “20” for “12”, “3 days.” for “1 day.”
as §1, with “6:” for “1:”, “IU/animal” for “IU/gilt”, “20” for “12”, “5 days.” for “1 day.”
Treatment group 7: the hormone treatment and mating schemes for gilts were the same as FTAI. […]

## N#Cc1ccc(C(c2ccc(C#N)cc2)n2cncn2)cc1 [1-[bis(4-cyanophenyl)methyl]-1,2,4-triazole]
Day 5.5, Example 2 Treatment group 5: 20 μg/kg·BW/day orally, 3 days, gilts
  Number of estrous animals at different times after stopping Altrenogest (day/animal): 6 animal
Day 5.5, Example 2 Treatment group 6: 20 μg/kg·BW/day orally, 5 days, gilts
  Number of estrous animals at different times after stopping Altrenogest (day/animal): 0 animal
Day 5.5, Example 2 Treatment group 7: 40 μg/kg·BW/day orally, 1 day, gilts
  Number of estrous animals at different times after stopping Altrenogest (day/animal): 2 animal
Day 5.5, Example 2 Treatment group 8: 40 μg/kg·BW/day orally, 5 days, gilts
  Number of estrous animals at different times after stopping Altrenogest (day/animal): 0 animal
Day 6, Example 2 Treatment group 1: 12 μg/kg·BW/day orally, 1 day, gilts
  Number of estrous animals at different times after stopping Altrenogest (day/animal): 8 animal
Day 6, Example 2 Treatment group 2: 12 μg/kg·BW/day orally, 2 days, gilts
  Number of estrous animals at different times after stopping Altrenogest (day/animal): 7 animal
Day 6, Example 2 Treatment group 3: 20 μg/kg·BW/day orally, 1 day, gilts
  Number of estrous animals at different times after stopping Altrenogest (day/animal): 7 animal
Day 6, Example 2 Treatment group 4: 20 μg/kg·BW/day orally, 2 days, gilts
  Number of estrous animals at different times after stopping Altrenogest (day/animal): 6 animal
Day 6, Example 2 Treatment group 5: 20 μg/kg·BW/day orally, 3 days, gilts
  Number of estrous animals at different times after stopping Altrenogest (day/animal): 7 animal
Day 6, Example 2 Treatment group 6: 20 μg/kg·BW/day orally, 5 days, gilts
  Number of estrous animals at different times after stopping Altrenogest (day/animal): 5 animal
Day 6, Example 2 Treatment group 7: 40 μg/kg·BW/day orally, 1 day, gilts
  Number of estrous animals at different times after stopping Altrenogest (day/animal): 2 animal
Day 6, Example 2 Treatment group 8: 40 μg/kg·BW/day orally, 5 days, gilts
  Number of estrous animals at different times after stopping Altrenogest (day/animal): 2 animal
Day 6.5, Example 2 Treatment group 1: 12 μg/kg·BW/day orally, 1 day, gilts
  Number of estrous animals at different times after stopping Altrenogest (day/animal): 4 animal
Day 6.5, Example 2 Treatment group 2: 12 μg/kg·BW/day orally, 2 days, gilts
  Number of estrous animals at different times after stopping Altrenogest (day/animal): 3 animal
Day 6.5, Example 2 Treatment group 3: 20 μg/kg·BW/day orally, 1 day, gilts
  Number of estrous animals at different times after stopping Altrenogest (day/animal): 5 animal
Day 6.5, Example 2 Treatment group 4: 20 μg/kg·BW/day orally, 2 days, gilts
  Number of estrous animals at different times after stopping Altrenogest (day/animal): 4 animal
Day 6.5, Example 2 Treatment group 5: 20 μg/kg·BW/day orally, 3 days, gilts
  Number of estrous animals at different times after stopping Altrenogest (day/animal): 3 animal
Day 6.5, Example 2 Treatment group 6: 20 μg/kg·BW/day orally, 5 days, gilts
  Number of estrous animals at different times after stopping Altrenogest (day/animal): 3 animal
Day 6.5, Example 2 Treatment group 7: 40 μg/kg·BW/day orally, 1 day, gilts
  Number of estrous animals at different times after stopping Altrenogest (day/animal): 9 animal
Day 6.5, Example 2 Treatment group 8: 40 μg/kg·BW/day orally, 5 days, gilts
  Number of estrous animals at different times after stopping Altrenogest (day/animal): 2 animal
Day 7, Example 2 Treatment group 1: 12 μg/kg·BW/day orally, 1 day, gilts
  Number of estrous animals at different times after stopping Altrenogest (day/animal): 5 animal
Day 7, Example 2 Treatment group 2: 12 μg/kg·BW/day orally, 2 days, gilts
  Number of estrous animals at different times after stopping Altrenogest (day/animal): 3 animal
Day 7, Example 2 Treatment group 3: 20 μg/kg·BW/day orally, 1 day, gilts
  Number of estrous animals at different times after stopping Altrenogest (day/animal): 2 animal
Day 7, Example 2 Treatment group 4: 20 μg/kg·BW/day orally, 2 days, gilts
  Number of estrous animals at different times after stopping Altrenogest (day/animal): 2 animal
Day 7, Example 2 Treatment group 5: 20 μg/kg·BW/day orally, 3 days, gilts
  Number of estrous animals at different times after stopping Altrenogest (day/animal): 3 animal
Day 7, Example 2 Treatment group 6: 20 μg/kg·BW/day orally, 5 days, gilts
  Number of estrous animals at different times after stopping Altrenogest (day/animal): 8 animal
Day 7, Example 2 Treatment group 7: 40 μg/kg·BW/day orally, 1 day, gilts
  Number of estrous animals at different times after stopping Altrenogest (day/animal): 0 animal
Day 7, Example 2 Treatment group 8: 40 μg/kg·BW/day orally, 5 days, gilts
  Number of estrous animals at different times after stopping Altrenogest (day/animal): 0 animal
Day 7.5, Example 2 Treatment group 1: 12 μg/kg·BW/day orally, 1 day, gilts
  Number of estrous animals at different times after stopping Altrenogest (day/animal): 1 animal
Day 7.5, Example 2 Treatment group 2: 12 μg/kg·BW/day orally, 2 days, gilts
  Number of estrous animals at different times after stopping Altrenogest (day/animal): 1 animal
Day 7.5, Example 2 Treatment group 3: 20 μg/kg·BW/day orally, 1 day, gilts
  Number of estrous animals at different times after stopping Altrenogest (day/animal): 1 animal
Day 7.5, Example 2 Treatment group 4: 20 μg/kg·BW/day orally, 2 days, gilts
  Number of estrous animals at different times after stopping Altrenogest (day/animal): 1 animal
Day 7.5, Example 2 Treatment group 5: 20 μg/kg·BW/day orally, 3 days, gilts
  Number of estrous animals at different times after stopping Altrenogest (day/animal): 2 animal
Day 7.5, Example 2 Treatment group 6: 20 μg/kg·BW/day orally, 5 days, gilts
  Number of estrous animals at different times after stopping Altrenogest (day/animal): 1 animal
Day 7.5, Example 2 Treatment group 7: 40 μg/kg·BW/day orally, 1 day, gilts
  Number of estrous animals at different times after stopping Altrenogest (day/animal): 9 animal
Day 7.5, Example 2 Treatment group 8: 40 μg/kg·BW/day orally, 5 days, gilts
  Number of estrous animals at different times after stopping Altrenogest (day/animal): 0 animal
Day 8, Example 2 Treatment group 1: 12 μg/kg·BW/day orally, 1 day, gilts
  Number of estrous animals at different times after stopping Altrenogest (day/animal): 0 animal
Day 8, Example 2 Treatment group 2: 12 μg/kg·BW/day orally, 2 days, gilts
  Number of estrous animals at different times after stopping Altrenogest (day/animal): 0 animal
Day 8, Example 2 Treatment group 3: 20 μg/kg·BW/day orally, 1 day, gilts
  Number of estrous animals at different times after stopping Altrenogest (day/animal): 0 animal
Day 8, Example 2 Treatment group 4: 20 μg/kg·BW/day orally, 2 days, gilts
  Number of estrous animals at different times after stopping Altrenogest (day/animal): 0 animal
Day 8, Example 2 Treatment group 5: 20 μg/kg·BW/day orally, 3 days, gilts
  Number of estrous animals at different times after stopping Altrenogest (day/animal): 1 animal
Day 8, Example 2 Treatment group 6: 20 μg/kg·BW/day orally, 5 days, gilts
  Number of estrous animals at different times after stopping Altrenogest (day/animal): 2 animal
Day 8, Example 2 Treatment group 7: 40 μg/kg·BW/day orally, 1 day, gilts
  Number of estrous animals at different times after stopping Altrenogest (day/animal): 0 animal
Day 8, Example 2 Treatment group 8: 40 μg/kg·BW/day orally, 5 days, gilts
  Number of estrous animals at different times after stopping Altrenogest (day/animal): 0 animal
gilts, 80 and 160 μg/kg·BW/day for 5 consecutive days (treatment groups 9 and 10)
  estrus on the 8th day after altrenogest was stopped: no estrus
gilts, high dose or multiple (5) low doses (treatment groups 6, 8, 9, and 10)
  estrus rate: decreased estrus rate or even no estrus
gilts, low dose (treatment groups 1, 2, 3, 4, 5, and 7), compared with FTAI group
  estrus rate: not significantly different
high-dose
  estrus in sows: inhibited
low-dose, batch farrowing with FTAI
  gilt estrus rate: no significant change
